Test results published in publication doi:10.1101/2022.06.29.498065v2 (biorxiv, 2022).

Biological target: KFDV NS5 (Kyasanur Forest disease virus, UniProt D7RF80)
Assay: biochemical

Sequence of KFDV NS5 (D7RF80 2518-3410 limits assumed): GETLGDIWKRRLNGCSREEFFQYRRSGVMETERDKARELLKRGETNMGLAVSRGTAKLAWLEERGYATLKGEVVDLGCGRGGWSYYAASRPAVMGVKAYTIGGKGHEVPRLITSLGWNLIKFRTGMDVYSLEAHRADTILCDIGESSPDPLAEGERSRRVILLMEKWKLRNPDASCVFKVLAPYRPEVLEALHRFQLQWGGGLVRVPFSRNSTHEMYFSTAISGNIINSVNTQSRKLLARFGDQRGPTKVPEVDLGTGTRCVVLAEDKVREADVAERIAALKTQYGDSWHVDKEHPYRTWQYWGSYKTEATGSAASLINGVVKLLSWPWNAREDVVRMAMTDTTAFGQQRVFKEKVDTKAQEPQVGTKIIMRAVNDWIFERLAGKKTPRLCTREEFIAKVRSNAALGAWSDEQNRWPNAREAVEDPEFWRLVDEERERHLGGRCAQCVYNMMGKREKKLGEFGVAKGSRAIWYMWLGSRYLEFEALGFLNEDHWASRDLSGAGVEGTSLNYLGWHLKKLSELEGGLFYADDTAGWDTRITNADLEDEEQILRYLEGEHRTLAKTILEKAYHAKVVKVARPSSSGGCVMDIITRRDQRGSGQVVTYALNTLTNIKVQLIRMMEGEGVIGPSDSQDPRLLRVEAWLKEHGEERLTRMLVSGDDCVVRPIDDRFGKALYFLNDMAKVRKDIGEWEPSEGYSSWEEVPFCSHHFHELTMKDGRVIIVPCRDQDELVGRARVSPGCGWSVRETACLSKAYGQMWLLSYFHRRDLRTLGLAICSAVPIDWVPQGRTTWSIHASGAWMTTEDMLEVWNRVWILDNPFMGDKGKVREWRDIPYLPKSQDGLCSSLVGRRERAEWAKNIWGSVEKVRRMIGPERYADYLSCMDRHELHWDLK

Compound	IC50 [µM]
CC(C)OC(=O)[C@H](C)N[P@](=O)(OC[C@H]1O[C@@H](n2ccc(=O)[nH]c2=O)[C@](C)(F)[C@@H]1O)Oc1ccccc1 [Sofosbuvir, L-Alanine, N-[[P(S),2’R]-2’-deoxy-2’-fluoro-2’-methyl-P-phenyl-5’-uridylyl]-,1-methyl ethyl ester]	3.45 ± 0.012
C[C@@]1(F)[C@H](O)[C@@H](COP(=O)(O)OP(=O)(O)OP(=O)(O)O)O[C@H]1n1ccc(=O)[nH]c1=O [sofosbuvir triphosphate, β-D-2’-deoxy-2’-fluoro-2’-C-methyluridine 5’-triphosphate]	3.73 ± 0.033
